Assay results taken from US9957270B2, “Fused pyrimidine-based hydroxamate derivatives” (Agency for Science, Technology and Research, priority 2014, dated 2018).

Key:
PI3Kβ = biological target: T1, PI3Kβ (Homo sapiens, UniProt P42338); assay: Kinase enzyme assay (ADP-Glo), PI3Kβ; assay type: biochemical; conditions: read-out: In Vitro Enzymatic IC50 PI3Kβ
T1 construct: purchased SignalChem or BPS P28-10H / 40622

[1] = Microsomal stability, mouse liver microsomes; conditions: mouse, microsomes, 0.5 h, 5 μM, pH 7.4
Summary of the method: (§1)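 Liver microsomes at 0.5 mg/mL protein incubated with compound for 30 min (mouse), 45 min (rat), or 30 or 45 min (human). Reaction stopped with ice-cold acetonitrile containing 0.3% formic acid; % parent remaining measured by LC-MS.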

HCCLM3 = assay: Anti-proliferative assay (cellular IC50), HCCLM3; conditions: Homo sapiens, HCCLM3, read-out: In Vitro Cellular IC50 HCCLM3
Method: (§2) Cells were cultivated at 37° C., 5% CO2 in media containing 10% FBS and 2 mM glutamine Cells were routinely monitored with MycoAlert™ PLUS Mycoplasma Detection Kit (Lonza Walkersville, Inc.) to make sure they were mycoplasma free. Antibiotics (100 U/mL of penicillin and 100 μg/mL of streptomycin) were only added to the media used for compound dilution and cells in 96-well assay plates.
(§3) For a typical screening experiment, cells (100 μL/well) are inoculated into 96 well microtiter plates at plating densities ranging from 2,000 to 30,000 cells/well depending on the doubling time of individual cell lines and assay linearity. […] Suspension cells are treated with test compounds immediately after cell inoculation.
(§4) Test compounds are serially diluted (3-fold or 4-fold, 8-concentration) using the same media and added to the plates (15 to 25 μL/well). After 72 h of cultivation, the plates are assayed for cell cytotoxicity/viability by using the following two methods.
(§5) Cells in plates are fixed with cold trichloroacetic acid (TCA) (50% w/v in DI water, 1/4 volume of the medium in each well), and incubated at 4° C. for 1 h (adherent cells) or 2 h (suspension cells). The plates are washed 5 times (tap water×3, DI water×2) and air-dried. SRB solution 0.4% (w/v) in 1% acetic acid is added to each well (60 μL/well) and the plates are incubated at room temperature for 30 min, then washed with 1% acetic acid solution 4 times, and air-dried.
(§6) The plates are added CellTiter-Glo® Reagent (95 μL/well) and read the luminescence on a BioTek H4 reader per manufacture's protocol.
(§7) The raw data are processed using BioTek's Software Gen5 (v2.03.01) to generate inhibitory IC50 values.

[2] = system: histone 3 (Lys 9) and α-tubulin acetylation (HDACs) in PC-3 cells; assay: Western blot, acetylation of histone 3 (Lys 9) and α-tubulin in PC-3 cells; assay type: cell-based, human; conditions: 24 h, 1 or 10 μM
Method: Proteins in cell lysates are resolved by SDS-PAGE and transferred to PVDF and probed with appropriate primary and secondary antibodies. […] Representative Western blot images are shown in FIG. 15 and analyzed results are presented by FIGS. 17 to 20.
PC-3 cells were treated with test compounds at the following concentrations (all contain 0.1% DMSO) for 24 h at 37° C., and then processed according to section of Western Blot Analysis.
The graph represents results from two Western Blot analyses. […] Vehicle DMSO (0.1%) was used as blank control, and its acH3 level was normalized to 1. Y Axis is expressed as Mean±SD if applicable.
Vehicle DMSO (0.1%) as blank control, and its acetylation level was normalized to 1. Y Axis is expressed as Mean±SD if applicable.

PC-3 tumors = assay: Target modulation in PC-3 prostate cancer xenograft (histone H3 acetylation, Western blot); assay type: in vivo, mouse; conditions: BALB/c nude mice, oral, EX1 150 mg/kg, EX78 100 mg/kg
Excerpt: Blood samples, tumors and other tissues were collected for PK/PD studies at the indicated time points (two mice each time point).
The lanes and the concentrations used were as follows: […]

[3] = Microsomal stability, rat liver microsomes; conditions: rat, microsomes, 0.75 h, 5 μM, pH 7.4
Summary of the method: as §1

NCI-H460 = assay: Anti-proliferative assay (cellular IC50), NCI-H460; conditions: Homo sapiens, NCI-H460, read-out: In Vitro Cellular IC50 NCI-H460
Method: as §2, §3, §4, §5, §6, §7

[4] = Microsomal stability, human liver microsomes; conditions: human, microsomes, 0.75 h, 5 μM, pH 7.4
Summary of the method: as §1

HuH-7 = assay: Anti-proliferative assay (cellular IC50), HuH-7; conditions: Homo sapiens, Huh-7, read-out: In Vitro Cellular IC50 HuH-7
Method: as §2, §3, §4, §5, §6, §7

T1 sequence (P42338 whole entry): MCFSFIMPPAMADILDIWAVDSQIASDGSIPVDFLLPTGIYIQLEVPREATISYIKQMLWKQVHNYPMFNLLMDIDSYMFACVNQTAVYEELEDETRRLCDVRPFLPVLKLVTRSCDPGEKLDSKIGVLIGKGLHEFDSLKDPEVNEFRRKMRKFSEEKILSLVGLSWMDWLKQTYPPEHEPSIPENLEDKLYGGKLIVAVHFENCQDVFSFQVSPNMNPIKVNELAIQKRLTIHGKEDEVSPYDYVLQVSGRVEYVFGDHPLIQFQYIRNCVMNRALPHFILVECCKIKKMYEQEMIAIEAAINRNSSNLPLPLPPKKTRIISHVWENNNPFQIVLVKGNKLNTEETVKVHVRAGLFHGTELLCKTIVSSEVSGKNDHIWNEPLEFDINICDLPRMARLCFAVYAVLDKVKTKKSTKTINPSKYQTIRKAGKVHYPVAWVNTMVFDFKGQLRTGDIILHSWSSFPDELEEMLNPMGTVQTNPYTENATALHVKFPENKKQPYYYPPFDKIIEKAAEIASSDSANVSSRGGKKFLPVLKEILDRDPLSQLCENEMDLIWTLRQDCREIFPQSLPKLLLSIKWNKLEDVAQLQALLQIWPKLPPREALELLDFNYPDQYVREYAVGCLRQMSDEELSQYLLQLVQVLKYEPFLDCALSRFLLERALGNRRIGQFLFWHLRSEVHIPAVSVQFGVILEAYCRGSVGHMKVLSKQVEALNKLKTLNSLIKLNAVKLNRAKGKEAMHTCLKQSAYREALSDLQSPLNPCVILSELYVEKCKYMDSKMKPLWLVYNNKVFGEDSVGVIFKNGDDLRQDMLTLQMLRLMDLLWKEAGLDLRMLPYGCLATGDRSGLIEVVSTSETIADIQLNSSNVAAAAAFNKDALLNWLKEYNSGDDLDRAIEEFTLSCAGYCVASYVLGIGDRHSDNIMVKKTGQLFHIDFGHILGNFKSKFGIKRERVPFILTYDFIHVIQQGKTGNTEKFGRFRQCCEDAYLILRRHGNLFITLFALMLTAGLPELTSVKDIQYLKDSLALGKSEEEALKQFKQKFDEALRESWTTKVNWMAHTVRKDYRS
T1 sequence (P27986 whole entry partner): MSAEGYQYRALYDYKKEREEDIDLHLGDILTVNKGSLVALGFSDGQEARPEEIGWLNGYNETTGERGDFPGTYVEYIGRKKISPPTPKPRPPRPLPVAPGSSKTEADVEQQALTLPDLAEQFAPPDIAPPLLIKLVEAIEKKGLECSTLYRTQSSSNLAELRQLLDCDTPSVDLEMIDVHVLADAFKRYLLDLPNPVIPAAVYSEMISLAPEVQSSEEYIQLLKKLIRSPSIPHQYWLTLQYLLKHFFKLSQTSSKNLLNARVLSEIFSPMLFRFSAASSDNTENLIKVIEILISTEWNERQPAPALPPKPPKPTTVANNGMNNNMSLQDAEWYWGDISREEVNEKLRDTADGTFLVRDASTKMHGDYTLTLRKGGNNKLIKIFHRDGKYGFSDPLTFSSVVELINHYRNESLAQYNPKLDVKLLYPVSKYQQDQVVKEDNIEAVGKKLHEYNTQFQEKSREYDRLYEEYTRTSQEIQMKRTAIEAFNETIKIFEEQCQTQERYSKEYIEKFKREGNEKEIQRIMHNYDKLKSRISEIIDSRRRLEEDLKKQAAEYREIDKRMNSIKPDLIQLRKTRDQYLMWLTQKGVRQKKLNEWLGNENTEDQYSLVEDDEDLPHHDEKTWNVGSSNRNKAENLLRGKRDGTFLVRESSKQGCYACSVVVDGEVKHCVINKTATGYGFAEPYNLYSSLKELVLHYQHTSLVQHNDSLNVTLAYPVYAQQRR

Structure (SMILES) | IC50 (PI3Kβ) | Microsomal Stability MLM, % of remaining parent compound [1] | IC50 (HCCLM3) | Hyperacetylation of histone 3 (Lys 9) and α-tubulin [2] | Hyperacetylation of H3 in PC-3 tumors (PC-3 tumors) | Microsomal Stability RLM, % of remaining parent compound [3] | IC50 (NCI-H460) | Microsomal Stability HLM, % of remaining parent compound [4] | IC50 (HuH-7)
CCn1c(CN(C)Cc2ccc(C(=O)NO)cc2)nc2c(N3CCOCC3)nc(-c3cnc(N)nc3)nc21 [compound 7] | 10 to 100 nM | – | – | – | – | – | – | – | –
CC(C)n1cnc2c(-c3cccc(OCCCC(=O)NO)c3)nc(N3CCOCC3)nc21 [compound 1] | – | 96% | 2000 to 10000 nM | the hyperacetylation effect is dose-dependent | Hyperacetylation of H3 in PC-3 tumors was confirmed | 70% | 500 to 2000 nM | 101% | 500 to 2000 nM
CS(=O)(=O)N1CCN(Cc2cc3nc(-c4cccc5[nH]ncc45)nc(N4CCOCC4)c3s2)CC1 [GDC-0941, reference compound] | – | – | 500 to 2000 nM | – | – | – | < 500 nM | – | 500 to 2000 nM
